These results are taken from PMC9661477, “New Dual P-Glycoprotein (P-gp) and Human Carbonic Anhydrase XII (hCA XII) Inhibitors as Multidrug Resistance (MDR) Reversers in Cancer Cells” (Journal of Medicinal Chemistry, 2022).

Each structure is given as a SMILES string. Where a name gives a salt, the structure may show the parent alone. Read-outs that look alike come from different tables or passages of the source.

The target of data set [1] is hCA I (Homo sapiens, UniProt P00915). The data set can be described thus: stopped-flow CO2 hydrase assay, hCA I. The conditions noted are these: read-out: Ki hCA I; stopped-flow technique, mean from three different assays.
Description: (§1) An SX.18MV-R Applied Photophysics (Oxford, U.K.) stopped-flow instrument has been used to assay the catalytic/inhibition of various CA isozymes.[38] […] The inhibition constants were obtained by nonlinear least-squares methods using the Cheng–Prusoff equation, as reported earlier,[32] and represent the mean from at least three different determinations.
The target of data set [2] is hCA II (Homo sapiens, UniProt P00918). The data set can be described thus: stopped-flow CO2 hydrase assay, hCA II. The conditions noted are these: read-out: Ki hCA II; stopped-flow technique, mean from three different assays.
Description: as §1
In data set [3] the target is hCA IX (Homo sapiens, UniProt Q16790). Description: stopped-flow CO2 hydrase assay, hCA IX.
Description: as §1
Where [4] appears, read: read-out: Ki hCA IX, stopped-flow technique, mean from three different assays.

Sequence of hCA I (P00915 whole entry): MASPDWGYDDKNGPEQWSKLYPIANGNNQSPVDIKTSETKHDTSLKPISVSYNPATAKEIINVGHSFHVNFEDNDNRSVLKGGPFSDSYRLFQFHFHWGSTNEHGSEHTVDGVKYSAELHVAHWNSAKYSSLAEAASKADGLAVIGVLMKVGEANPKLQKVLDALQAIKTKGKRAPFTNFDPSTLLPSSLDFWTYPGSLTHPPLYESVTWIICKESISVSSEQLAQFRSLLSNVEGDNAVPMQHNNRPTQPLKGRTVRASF

For the compound `COc1cc(C(=O)OCCCN(CCCCCCCOC(=O)c2c3ccccc3cc3ccccc23)CCCOc2ccc3ccc(=O)oc3c2)cc(OC)c1OC` (as salt: hydrochloride) [Compound 26, 7-((3-((2-Oxo-2H-chromen-7-yl)oxy)propyl)(3-((3,4,5-trimethoxybenzoyl)oxy)propyl)amino)heptyl Anthracene-9-carboxylate], the melting point is 97 to 99 °C.
Same read-out and setting: as for `COc1cc(/C=C/C(=O)OCCCN(CCCCCCOC(=O)c2c3ccccc3cc3ccccc23)CCCOc2ccc3ccc(=O)oc3c2)cc(OC)c1OC` (as salt: hydrochloride) [Compound 16, (E)-6-((3-((2-Oxo-2H-chromen-7-yl)oxy)propyl)(3-((3-(3,4,5-trimethoxyphenyl)acryloyl)oxy)propyl)amino)hexyl Anthracene-9-carboxylate], the figure is 92 to 95 °C; as for `COc1cc(C(=O)OCCCCCCN(CCCOC(=O)c2cc(OC)c(OC)c(OC)c2)CCCOc2ccc3ccc(=O)oc3c2)cc(OC)c1OC` (as salt: hydrochloride) [Compound 14, 6-((3-((2-Oxo-2H-chromen-7-yl)oxy)propyl)(3-((3,4,5-trimethoxybenzoyl)oxy)propyl)amino)hexyl 3,4,5-Trimethoxybenzoate], 83 to 85 °C; as for `COc1cc(/C=C/C(=O)OCCCCCN(CCCOC(=O)c2cc(OC)c(OC)c(OC)c2)CCCOc2ccc3ccc(=O)oc3c2)cc(OC)c1OC` (as salt: hydrochloride) [Compound 2, (E)-3-((3-((2-Oxo-2H-chromen-7-yl)oxy)propyl)(5-((3-(3,4,5-trimethoxyphenyl)acryloyl)oxy)pentyl)amino)propyl 3,4,5-Trimethoxybenzoate], 128 to 131 °C.
Same read-out and setting: as for `COc1cc(/C=C/C(=O)OCCCCCCN(CCCOC(=O)c2c3ccccc3cc3ccccc23)CCCOc2ccc3ccc(=O)oc3c2)cc(OC)c1OC` (as salt: hydrochloride) [Compound 12, (E)-3-((3-((2-Oxo-2H-chromen-7-yl)oxy)propyl)(6-((3-(3,4,5-trimethoxyphenyl)acryloyl)oxy)hexyl)amino)propyl Anthracene-9-carboxylate], the figure is 99 to 102 °C; as for `COc1cc(/C=C/C(=O)OCCCCCN(CCCOC(=O)/C=C/c2cc(OC)c(OC)c(OC)c2)CCCOc2ccc3ccc(=O)oc3c2)cc(OC)c1OC` (as salt: hydrochloride) [Compound 1, (E)-5-((3-((2-Oxo-2H-chromen-7-yl)oxy)propyl)(3-(((E)-3-(3,4,5-trimethoxyphenyl)acryloyl)oxy)propyl)amino)pentyl 3-(3,4,5-Trimethoxyphenyl)acrylate], 81 to 84 °C; as for `COc1cc(/C=C/C(=O)OCCCCCCCN(CCCOC(=O)c2cc(OC)c(OC)c(OC)c2)CCCOc2ccc3ccc(=O)oc3c2)cc(OC)c1OC` (as salt: hydrochloride) [Compound 20, (E)-3-((3-((2-Oxo-2H-chromen-7-yl)oxy)propyl)(7-((3-(3,4,5-trimethoxyphenyl)acryloyl)oxy)heptyl)amino)propyl 3,4,5-Trimethoxybenzoate], 84 to 87 °C.
On the same count and under the same terms, as for `COc1cc(/C=C/C(=O)OCCCCCCN(CCCOC(=O)c2cc(OC)c(OC)c(OC)c2)CCCOc2ccc3ccc(=O)oc3c2)cc(OC)c1OC` (as salt: hydrochloride) [Compound 11, (E)-3-((3-((2-Oxo-2H-chromen-7-yl)oxy)propyl)(6-((3-(3,4,5-trimethoxyphenyl)acryloyl)oxy)hexyl)amino)propyl 3,4,5-Trimethoxybenzoate], the figure is 71 to 74 °C; as for `O=C(OCCCCCCN(CCCOC(=O)c1c2ccccc2cc2ccccc12)CCCOc1ccc2ccc(=O)oc2c1)c1c2ccccc2cc2ccccc12` (as salt: hydrochloride) [Compound 18, 3-((6-((Anthracene-9-carbonyl)oxy)hexyl)(3-((2-oxo-2H-chromen-7-yl)oxy)propyl)amino)propyl Anthracene-9-carboxylate], 136 to 139 °C; as for `O=C(OCCCCCN(CCCOC(=O)c1c2ccccc2cc2ccccc12)CCCOc1ccc2ccc(=O)oc2c1)c1c2ccccc2cc2ccccc12` (as salt: hydrochloride) [Compound 9, 3-((5-((Anthracene-9-carbonyl)oxy)pentyl)(3-((2-oxo-2H-chromen-7-yl)oxy)propyl)amino)propyl Anthracene-9-carboxylate], 118 to 121 °C.
In turn, `COc1cc(C(=O)OCCCN(CCCCCCOC(=O)c2c3ccccc3cc3ccccc23)CCCOc2ccc3ccc(=O)oc3c2)cc(OC)c1OC` (as salt: hydrochloride) [Compound 17, 6-((3-((2-Oxo-2H-chromen-7-yl)oxy)propyl)(3-((3,4,5-trimethoxybenzoyl)oxy)propyl)amino)hexyl Anthracene-9-carboxylate] yielded a melting point of 87 to 90 °C.
On the same count and under the same terms, the figure for `COc1cc(/C=C/C(=O)OCCCN(CCCCCCCOC(=O)c2c3ccccc3cc3ccccc23)CCCOc2ccc3ccc(=O)oc3c2)cc(OC)c1OC` (as salt: hydrochloride) [Compound 25, (E)-7-((3-((2-Oxo-2H-chromen-7-yl)oxy)propyl)(3-((3-(3,4,5-trimethoxyphenyl)acryloyl)oxy)propyl)amino)heptyl Anthracene-9-carboxylate] is 107 to 110 °C.
Regarding `COc1cc(/C=C/C(=O)OCCCN(CCCCCCCOC(=O)c2c3ccccc3cc3ccccc23)CCCOc2ccc3ccc(=O)oc3c2)cc(OC)c1OC` [Compound 25, (E)-7-((3-((2-Oxo-2H-chromen-7-yl)oxy)propyl)(3-((3-(3,4,5-trimethoxyphenyl)acryloyl)oxy)propyl)amino)heptyl Anthracene-9-carboxylate], the figures for the Ki in data set [1], in data set [2] and in data set [3] (setting [4]) were > 10000 nM, > 10000 nM and 71.1 nM, respectively.
Turning to `COc1cc(/C=C/C(=O)OCCCCCCN(CCCOC(=O)/C=C/c2cc(OC)c(OC)c(OC)c2)CCCOc2ccc3ccc(=O)oc3c2)cc(OC)c1OC` [Compound 10, (E)-6-((3-((2-Oxo-2H-chromen-7-yl)oxy)propyl)(3-(((E)-3-(3,4,5-trimethoxyphenyl)acryloyl)oxy)propyl)amino)hexyl 3-(3,4,5-Trimethoxyphenyl)acrylate], the Ki was > 10000 nM in data set [1], > 10000 nM in data set [2], < 10 nM in data set [3] and 8.1 nM in data set [3] (setting [4]).
In the case of `COc1cc(/C=C/C(=O)OCCCN(CCCCCCOC(=O)c2c3ccccc3cc3ccccc23)CCCOc2ccc3ccc(=O)oc3c2)cc(OC)c1OC` [Compound 16, (E)-6-((3-((2-Oxo-2H-chromen-7-yl)oxy)propyl)(3-((3-(3,4,5-trimethoxyphenyl)acryloyl)oxy)propyl)amino)hexyl Anthracene-9-carboxylate], the Ki in data set [1] is > 10000 nM; in data set [2], > 10000 nM; in data set [3] (setting [4]), 148 nM.
Take `COc1cc(/C=C/C(=O)OCCCCCN(CCCOC(=O)c2c3ccccc3cc3ccccc23)CCCOc2ccc3ccc(=O)oc3c2)cc(OC)c1OC` [Compound 3, (E)-3-((3-((2-Oxo-2H-chromen-7-yl)oxy)propyl)(5-((3-(3,4,5-trimethoxyphenyl)acryloyl)oxy)pentyl)amino)propyl Anthracene-9-carboxylate]: the Ki in data set [1] is > 10000 nM; in data set [2], > 10000 nM; in data set [3], < 10 nM; in data set [3] (setting [4]), 7.9 nM.
With `COc1cc(/C=C/C(=O)OCCCCCCN(CCCOC(=O)c2cc(OC)c(OC)c(OC)c2)CCCOc2ccc3ccc(=O)oc3c2)cc(OC)c1OC` [Compound 11, (E)-3-((3-((2-Oxo-2H-chromen-7-yl)oxy)propyl)(6-((3-(3,4,5-trimethoxyphenyl)acryloyl)oxy)hexyl)amino)propyl 3,4,5-Trimethoxybenzoate], the Ki is > 10000 nM in data set [1], > 10000 nM in data set [2] and 50.2 nM in data set [3] (setting [4]).
Take `COc1cc(C(=O)OCCCCCCCN(CCCOC(=O)c2cc(OC)c(OC)c(OC)c2)CCCOc2ccc3ccc(=O)oc3c2)cc(OC)c1OC` [Compound 23, 7-((3-((2-Oxo-2H-chromen-7-yl)oxy)propyl)(3-((3,4,5-trimethoxybenzoyl)oxy)propyl)amino)heptyl 3,4,5-Trimethoxybenzoate]: the results for the Ki in data set [1], in data set [2] and in data set [3] (setting [4]) were > 10000 nM, > 10000 nM and 18.3 nM, respectively.
With `COc1cc(/C=C/C(=O)OCCCCCN(CCCOC(=O)c2cc(OC)c(OC)c(OC)c2)CCCOc2ccc3ccc(=O)oc3c2)cc(OC)c1OC` [Compound 2, (E)-3-((3-((2-Oxo-2H-chromen-7-yl)oxy)propyl)(5-((3-(3,4,5-trimethoxyphenyl)acryloyl)oxy)pentyl)amino)propyl 3,4,5-Trimethoxybenzoate], the Ki was > 10000 nM in data set [1], > 10000 nM in data set [2] and 24.2 nM in data set [3] (setting [4]).
`COc1cc(/C=C/C(=O)OCCCN(CCCCCOC(=O)c2c3ccccc3cc3ccccc23)CCCOc2ccc3ccc(=O)oc3c2)cc(OC)c1OC` [Compound 7, (E)-5-((3-((2-Oxo-2H-chromen-7-yl)oxy)propyl)(3-((3-(3,4,5-trimethoxyphenyl)acryloyl)oxy)propyl)amino)pentyl Anthracene-9-carboxylate]: the results for the Ki in data set [1], in data set [2] and in data set [3] (setting [4]) were > 10000 nM, > 10000 nM and 104 nM, respectively.
On to `COc1cc(/C=C/C(=O)OCCCCCN(CCCOC(=O)/C=C/c2cc(OC)c(OC)c(OC)c2)CCCOc2ccc3ccc(=O)oc3c2)cc(OC)c1OC` [Compound 1, (E)-5-((3-((2-Oxo-2H-chromen-7-yl)oxy)propyl)(3-(((E)-3-(3,4,5-trimethoxyphenyl)acryloyl)oxy)propyl)amino)pentyl 3-(3,4,5-Trimethoxyphenyl)acrylate], for which the Ki is > 10000 nM in data set [1], > 10000 nM in data set [2] and 39.5 nM in data set [3] (setting [4]).
